Assay results from patent US4459241A, “Compounds containing quaternary ammonium and methylenephosphonic acid groups” (The Dow Chemical Company, priority 1983, dated 1984).

Experiment: scale inhibition test with respect to calcium carbonate (soluble calcium retained, 24 h at 80° C.)
Format: physicochemical
Conditions: 10 ppm based on active acid, 0.02M CaCl2 + 0.04M sodium bicarbonate/0.96M sodium chloride, 24-hour period, blank 12%
Protocol: To these solutions is added the candidate inhibitor in various concentrations. Fifty-ml samples of a 0.04M sodium bicarbonate/0.96M sodium chloride solution are then added with stirring. A total hardness determination is made on the mixture by adding excess standard EDTA to a sample and back titrating with standard Mg^++ solution in the presence of Eriochrome Black T indicator. The samples are placed in an 80° C. oven and 10-ml samples taken periodically from each bottle, filtered through a millipore filter, and the total hardness of the filtrates determined by titration. A blank with no inhibitor is run in an identical manner. The relative inhibition effects are shown by determining the amount of hardness (as soluble calcium) before and after heating for a 24-hour period. The amount of soluble calcium as a percent of that originally present is indicated as % inhibition.
All products and comparative runs were made using a concentration of 10 ppm based on active acid.

C[N+](C)(C)CC(O)CN(CCN(CP(=O)(O)O)CP(=O)(O)O)CP(=O)(O)O (stereo not shown) [Product Ex. 1]
% Inhibition (amount of soluble calcium as a percent of that originally present): 41.8%
